Where only a bound is given, the exact number is not on record here.

The assay deals with T1, Autotaxin (Homo sapiens, UniProt Q13822).
T1 construct: purchased X-Chem
The assay can be described thus: Autotaxin LPC Cascade Assay. The assay is classed as biochemical. The note with it: 5 nM autotaxin, 100 μM LPC, choline oxidase/HRP/Ampliflu Red fluorescence readout; read-out: IC50 ATX activity values, IC50. On the procedure: Autotaxin LPC Cascade Assay
HA130 and Test Compounds:
Highest final concentration is […] for HA130 (Echelon, B-0701) and 30 μM for test compounds. Prepare a 1 mM stock of HA130 and a 3 mM stock of each compound in 100% DMSO. Perform a 1:3 serial dilution in DMSO (transfer 5 μl of compound to 10 μl of DMSO). Add 240 μl of buffer to generate a top working concentration of 40 µM (HA130) and 120 µM (test compound) in 4% DMSO.
Ampliflu Red—Prepare a stock of 5 mM from 100 mM in 100% DMSO. Further dilute to a working concentration of 400 μM in buffer (8% DMSO).
Together with compound this yields a 2% DMSO final concentration.
Choline Oxidase/HRP—0.8 U/ml CO and 8 U/ml HRP.
Add 5 μl of ATX and 5 μl of compound in a 384 well plate (Corning 3676). Incubate for 10 mins at RT. Add 5 μl of LPC and incubate for 1 hr on the plate shaker. Prepare the CO/HRP and AR prior to use. Add 2.5 μl of CO/HRP and follow with 2.5 μl AR. Note order of addition, CO/HRP mix before AR. Read fluorescence intensity (λex/λem: 530/590 nm) kinetically for 30 min at RT on the Tecan M1000.
For orientation: IC50 means the concentration at which inhibition is half-maximal. As to `CC(C)[C@@H](NC(=O)c1cc(C(F)(F)F)ccc1F)C(=O)N1CCC(Nc2ccc(S(C)(=O)=O)cc2)CC1` [Example 22, (R)-2-Fluoro-N-(3-methyl-1-(4-(4-(methylsulfonyl)phenylamino)piperidin-1-yl)-1-oxobutan-2-yl)-5-(trifluoromethyl)benzamide], the IC50 was not below 10000 nM. Regarding `CC(C)[C@@H](NC(=O)c1cc(C(F)(F)F)ccc1F)C(=O)N1CCC(Nc2ccc3[nH]ncc3c2)CC1` [Example 23, (R)—N-(1-(4-(1H-Indazol-5-ylamino)piperidin-1-yl)-3-methyl-1-oxobutan-2-yl)-2-fluoro-5-(trifluoromethyl)benzamide], the IC50 lay within 5000 to 10000 nM. In the case of `CC(C)[C@@H](NC(=O)c1cc(C(F)(F)F)ccc1F)C(=O)N1CCC(Nc2ccc(C(=O)O)cc2)CC1` [Example 24, (R)-4-(1-(2-(2-Fluoro-5-(trifluoromethyl)benzamido)-3-methylbutanoyl)piperidin-4-ylamino)benzoic acid], the IC50 was not below 10000 nM. As to `CC1CCc2cc(F)c(C(=O)N[C@@H](C(=O)N3CCC(C)(Nc4ccc(S(C)(=O)=O)cc4)CC3)C(C)C)cc21` (stereo partly drawn) [Example 25, 6-Fluoro-3-methyl-N—((R)-3-methyl-1-(4-methyl-4-(4-(methylsulfonyl)phenylamino)piperidin-1-yl)-1-oxobutan-2-yl)-2,3-dihydro-1H-indene-5-carboxamide], the IC50 lay in the range of 100 to 500 nM. With `CCc1ccc(F)c(C(=O)N[C@@H](C(=O)N2CCC(C)(Nc3ccc(CS(C)(=O)=O)cc3)CC2)C(C)C)c1` [Example 26, (R)-5-Ethyl-2-fluoro-N-(3-methyl-1-(4-methyl-4-(4-(methylsulfonylmethyl)phenylamino)piperidin-1-yl)-1-oxobutan-2-yl)benzamide] the figure was 10 to 100 nM; with `CC(C)[C@@H](NC(=O)c1cc(C(F)(F)F)ccc1F)C(=O)N1CCC(C)(Nc2ccc(S(C)(=O)=O)cc2)CC1` [Example 27, (R)-2-Fluoro-N-(3-methyl-1-(4-methyl-4-(4-(methylsulfonyl)phenylamino)piperidin-1-yl)-1-oxobutan-2-yl)-5-(trifluoromethyl)benzamide], 100 to 500 nM. The value for `CC(C)[C@@H](NC(=O)c1cc(OC(F)F)ccc1F)C(=O)N1CCC(C)(Nc2ccc(S(C)(=O)=O)cc2)CC1` [Example 28, (R)-5-(Difluoromethoxy)-2-fluoro-N-(3-methyl-1-(4-methyl-4-(4-(methylsulfonyl)phenylamino)piperidin-1-yl)-1-oxobutan-2-yl)benzamide] was 100 to 500 nM; that for `CC(C)[C@@H](NC(=O)c1cc(C(C)(C)C)ccc1F)C(=O)N1CCC(C)(Nc2ccc(S(C)(=O)=O)cc2)CC1` [Example 29, (R)-5-tert-Butyl-2-fluoro-N-(3-methyl-1-(4-methyl-4-(4-(methylsulfonyl)phenylamino)piperidin-1-yl)-1-oxobutan-2-yl)benzamide] was 500 to 5000 nM.

As for `CC(C)[C@@H](NC(=O)c1cc(Cc2ccccc2)ccc1F)C(=O)N1CCC(C)(Nc2ccc(S(C)(=O)=O)cc2)CC1` [Example 30, (R)-5-Benzyl-2-fluoro-N-(3-methyl-1-(4-methyl-4-(4-(methylsulfonyl)phenylamino)piperidin-1-yl)-1-oxobutan-2-yl)benzamide], the IC50 was in the range of 500 to 5000 nM.

Take `CC(C)Cc1ccc(F)c(C(=O)N[C@@H](C(=O)N2CCC(C)(Nc3ccc(S(C)(=O)=O)cc3)CC2)C(C)C)c1` [Example 31, (R)-2-Fluoro-5-isobutyl-N-(3-methyl-1-(4-methyl-4-(4-(methylsulfonyl)phenylamino)piperidin-1-yl)-1-oxobutan-2-yl)benzamide]: the IC50 was 10 to 100 nM. As for `CC(C)[C@@H](NC(=O)c1cc(-c2ccccc2)ccc1F)C(=O)N1CCC(C)(Nc2ccc(S(C)(=O)=O)cc2)CC1` [Example 32, (R)-4-Fluoro-N-(3-methyl-1-(4-methyl-4-(4-(methylsulfonyl)phenylamino)piperidin-1-yl)-1-oxobutan-2-yl)biphenyl-3-carboxamide], the IC50 is 100 to 500 nM.

On to `CC(C)[C@@H](NC(=O)c1cc(C2CC2)ccc1F)C(=O)N1CCC(C)(Nc2ccc(S(C)(=O)=O)cc2)CC1` [Example 33, (R)-5-Cyclopropyl-2-fluoro-N-(3-methyl-1-(4-methyl-4-(4-(methylsulfonyl)phenylamino)piperidin-1-yl)-1-oxobutan-2-yl)benzamide], for which the IC50 was in the range of 100 to 500 nM. The value for `CCc1cc(C(=O)N[C@@H](C(=O)N2CCC(C)(Nc3ccc(S(C)(=O)=O)cc3)CC2)C(C)C)c(F)cc1C` [Example 34, (R)-5-Ethyl-2-fluoro-4-methyl-N-(3-methyl-1-(4-methyl-4-(4-(methylsulfonyl)phenylamino)piperidin-1-yl)-1-oxobutan-2-yl)benzamide] was 100 to 500 nM; that for `CCc1ccc(F)c(C(=O)N[C@@H](C(=O)N2CCC(C)(CNc3ccc(S(C)(=O)=O)cc3)CC2)C(C)C)c1` [Example 35, (R)-5-Ethyl-2-fluoro-N-(3-methyl-1-(4-methyl-4-((4-(methylsulfonyl)phenylamino)methyl)piperidin-1-yl)-1-oxobutan-2-yl)benzamide] was 100 to 500 nM; that for `CC(C)c1ccc(F)c(C(=O)N[C@@H](C(=O)N2CCC(C)(Nc3ccc(S(C)(=O)=O)cc3)CC2)C(C)C)c1` [Example 36, (R)-2-Fluoro-5-isopropyl-N-(3-methyl-1-(4-methyl-4-(4-(methylsulfonyl)phenylamino)piperidin-1-yl)-1-oxobutan-2-yl)benzamide] was 10 to 100 nM. In the case of `CC(C)[C@@H](NC(=O)c1cc(OC(F)(F)F)ccc1F)C(=O)N1CCC(C)(NC(=O)c2ccc(S(C)(=O)=O)cc2)CC1` [Example 37, (R)-2-Fluoro-N-(3-methyl-1-(4-methyl-4-(4-(methylsulfonyl)benzamido)piperidin-1-yl)-1-oxobutan-2-yl)-5-(trifluoromethoxy)benzamide], the IC50 is 500 to 5000 nM.

With `CC(C)[C@@H](NC(=O)c1cccc(OC(F)(F)F)c1)C(=O)N1CCC(C)(NC(=O)c2ccc(S(C)(=O)=O)cc2)CC1` [Example 38, (R)—N-(3-Methyl-1-(4-methyl-4-(4-(methylsulfonyl)benzamido)piperidin-1-yl)-1-oxobutan-2-yl)-3-(trifluoromethoxy)benzamide], the IC50 lay in the range of 500 to 5000 nM. The value for `CC(C)[C@@H](NC(=O)c1cc(OC(F)(F)F)ccc1F)C(=O)N1CCC(C)(NCc2ccc(S(C)(=O)=O)cc2)CC1` [Example 39, (R)-2-Fluoro-N-(3-methyl-1-(4-methyl-4-((4-(methylsulfonyl)benzyl)amino)piperidin-1-yl)-1-oxobutan-2-yl)-5-(trifluoromethoxy)benzamide] was 10 to 100 nM; that for `COc1ccc(CNC2(C)CCN(C(=O)[C@H](NC(=O)c3cc(OC(F)(F)F)ccc3F)C(C)C)CC2)cc1` [Example 40, (R)-2-Fluoro-N-(1-(4-((4-methoxybenzyl)amino)-4-methylpiperidin-1-yl)-3-methyl-1-oxobutan-2-yl)-5-(trifluoromethoxy)benzamide] was 100 to 500 nM. With `CC(C)[C@@H](NC(=O)c1cccc(OC(F)(F)F)c1)C(=O)N1CCC(C)(NCc2ccc(S(C)(=O)=O)cc2)CC1` [Example 41, (R)—N-(3-Methyl-1-(4-methyl-4-((4-(methylsulfonyl)benzyl)amino)piperidin-1-yl)-1-oxobutan-2-yl)-3-(trifluoromethoxy)benzamide], the IC50 was 100 to 500 nM. Turning to `CC(C)[C@H](NC(=O)c1cccc(OC(F)(F)F)c1)C(=O)N1CCC(C)(NCc2ccc(S(C)(=O)=O)cc2)CC1` [Example 42, (S)—N-(3-Methyl-1-(4-methyl-4-((4-(methylsulfonyl)benzyl)amino)piperidin-1-yl)-1-oxobutan-2-yl)-3-(trifluoromethoxy)benzamide], the IC50 lay within 500 to 5000 nM. With `COc1ccc(CNC2(C)CCN(C(=O)[C@H](NC(=O)c3cccc(OC(F)(F)F)c3)C(C)C)CC2)cc1` [Example 43, (R)—N-(1-(4-((4-Methoxybenzyl)amino)-4-methylpiperidin-1-yl)-3-methyl-1-oxobutan-2-yl)-3-(trifluoromethoxy)benzamide] the figure was 500 to 5000 nM.
